Target: MetAP-2 (Homo sapiens, UniProt P50579)
Experiment: MetAP-2 activity measurement (coupled enzymatic reactions, Met-Arg-Ser substrate, dianisidine detection at 450 nm)
Format: biochemical
Details: Inhibition of MetAP-2; read-out: IC50 enzyme
Description: MetAP-2 Activity Measurement
The MetAP-2 activity is determined by coupling enzymatic reactions. The tripeptide Met-Arg-Ser (MAS) is employed as substrate. The methionine liberated is firstly converted into Metox and H2O2 by L-aminooxidase (AAO). In the second step, the peroxidase (POD) with the aid of the H2O2 catalyses the oxidation of the leukodye dianisidine to dianisidineox, the increase of which is detected photometrically at 450 nm.
MetAP-2 activity can be recorded continuously as kinetics. The reaction scheme illustrates that one mol of dianisidineox is formed per mol of methionene. The MetAP-2 enzyme activity can therefore be calculated directly as A absorption per time unit. Qualification of the MetAP-2 activity (mol of Met/time unit) is possible with the aid of the dianisidineox extinction coefficient.
The change in extinction per time unit is depicted graphically and a slope calculation is carried out in the visually linear region of the reaction.

Chain of MetAP-2 (P50579 whole entry, species assumed): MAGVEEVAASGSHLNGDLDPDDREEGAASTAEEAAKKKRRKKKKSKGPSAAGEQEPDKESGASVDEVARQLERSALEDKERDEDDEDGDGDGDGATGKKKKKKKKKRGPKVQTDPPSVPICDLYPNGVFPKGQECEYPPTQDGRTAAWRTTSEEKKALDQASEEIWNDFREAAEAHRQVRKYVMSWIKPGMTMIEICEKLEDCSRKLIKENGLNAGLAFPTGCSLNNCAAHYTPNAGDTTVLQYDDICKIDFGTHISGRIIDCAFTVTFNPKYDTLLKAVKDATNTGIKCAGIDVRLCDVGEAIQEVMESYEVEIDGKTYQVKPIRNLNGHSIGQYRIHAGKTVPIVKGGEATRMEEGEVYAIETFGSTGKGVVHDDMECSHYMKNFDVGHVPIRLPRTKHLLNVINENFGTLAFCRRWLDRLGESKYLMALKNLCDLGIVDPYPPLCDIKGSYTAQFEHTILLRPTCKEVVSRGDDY

IC50 [nM] | Compound
> 10000 | O=C(c1cccc(N2CC[C@@](O)(C(=O)NCc3cc(F)cc(Cl)c3)C2=O)c1)N1CCOCC1 [A74, N-(3-Chloro-5-fluorobenzyl)-(R)-3-hydroxy-1-[3-(morpholine-4-carbonyl)phenyl]-2-oxopyrrolidine-3-carboxamide]
10 to 1000 | O=C(NC1CC1)c1cccc(N2CC[C@](O)(C(=O)NCc3cc(F)cc(Cl)c3)C2=O)c1 [A75, N-(3-Chloro-5-fluorobenzyl)-(S)-1-(3-cyclopropylcarbamoylphenyl)-3-hydroxy-2-oxopyrrolidine-3-carboxamide]
10 to 1000 | O=C(NC1CCC1)c1cccc(N2CCC(O)(C(=O)NCc3cc(F)cc(Cl)c3)C2=O)c1 (stereo not shown) [A76, N-(3-Chloro-5-fluorobenzyl)-1-(3-cyclobutylcarbamoylphenyl)-3-hydroxy-2-oxopyrrolidine-3-carboxamide]
10 to 1000 | O=C(c1cccc(N2CC[C@](O)(C(=O)NCc3cc(F)cc(Cl)c3)C2=O)c1)N1CCCC1 [A77, N-(3-Chloro-5-fluorobenzyl)-(S)-3-hydroxy-2-oxo-1-[3-(pyrrolidine-1-carbonyl)phenyl]pyrrolidine-3-carboxamide]
10 to 1000 | CCC(=O)Nc1ccc(N2CCC(O)(C(=O)NCc3cc(F)cc(Cl)c3)C2=O)cn1 (stereo not shown) [A78, N-(3-Chloro-5-fluorobenzyl)-3-hydroxy-2-oxo-1-(6-propionylaminopyridin-3-yl)-pyrrolidine-3-carboxamide]
10 to 1000 | CCS(=O)(=O)Nc1cccc(N2CC[C@](O)(C(=O)NCc3cc(F)cc(Cl)c3)C2=O)c1 [A79, N-(3-Chloro-5-fluorobenzyl)-(S)-1-(3-ethanesulfonylaminophenyl)-3-hydroxy-2-oxopyrrolidine-3-carboxamide]
10 to 1000 | O=C(NCc1cc(F)cc(Cl)c1)[C@@]1(O)CCN(c2cccc(NS(=O)(=O)C3CC3)c2)C1=O [A80, N-(3-Chloro-5-fluorobenzyl)-(S)-1-(3-cyclopropanesulfonylamino-phenyl)-3-hydroxy-2-oxo-pyrrolidine-3-carboxamide]
10 to 1000 | O=C(NCc1cc(F)cc(Cl)c1)[C@@]1(O)CCCN(Cc2ccccc2)C1=O [A81, N-(3-Chloro-5-fluorobenzyl)-(S)-1-benzyl-3-hydroxy-2-oxopiperidine-3-carboxamide]
1000 to 10000 | O=C(NC1CC1)c1cccc(N2CC[C@@](O)(C(=O)NCc3cc(F)cc(Cl)c3)C2=O)c1 [A82, N-(3-Chloro-5-fluorobenzyl)-(R)-1-(3-cyclopropylcarbamoylphenyl)-3-hydroxy-2-oxopyrrolidine-3-carboxamide]
> 10000 | O=C(c1cccc(N2CC[C@@](O)(C(=O)NCc3cc(F)cc(Cl)c3)C2=O)c1)N1CCCC1 [A83, N-(3-Chloro-5-fluorobenzyl)-(R)-3-hydroxy-2-oxo-1-[3-(pyrrolidine-1-carbonyl)phenyl]pyrrolidine-3-carboxamide]
1000 to 10000 | CCS(=O)(=O)Nc1cccc(N2CC[C@@](O)(C(=O)NCc3cc(F)cc(Cl)c3)C2=O)c1 [A84, N-(3-Chloro-5-fluorobenzyl)-(R)-1-(3-ethanesulfonylaminophenyl)-3-hydroxy-2-oxopyrrolidine-3-carboxamide]
> 10000 | O=C(NCc1cc(F)cc(Cl)c1)[C@]1(O)CCN(c2cccc(NS(=O)(=O)C3CC3)c2)C1=O [A85, N-(3-Chloro-5-fluorobenzyl)-(R)-1-(3-cyclopropanesulfonylamino-phenyl)-3-hydroxy-2-oxo-pyrrolidine-3-carboxamidee]
> 10000 | O=C(NCc1cc(F)cc(Cl)c1)[C@]1(O)CCCN(Cc2ccccc2)C1=O [A86, N-(3-Chloro-5-fluorobenzyl)-(R)-1-benzyl-3-hydroxy-2-oxo-piperidine-3-carboxamide]
10 to 1000 | N#Cc1c[nH]c2ccc(N3CCC(O)(C(=O)NCc4cc(F)cc(Cl)c4)C3=O)cc12 (stereo not shown) [A87, N-(3-Chloro-5-fluorobenzyl)-1-(3-cyano-1H-indol-5-yl)-3-hydroxy-2-oxopyrrolidine-3-carboxamide]
10 to 1000 | O=C(NCCO)c1cccc(N2CC[C@](O)(C(=O)NCc3cc(F)cc(Cl)c3)C2=O)c1 [A88, N-(3-Chloro-5-fluorobenzyl)-(S)-3-hydroxy-1-[3-(2-hydroxy-ethylcarbamoyl)phenyl]-2-oxo-pyrrolidine-3-carboxamide]
> 10000 | C=C(Cc1ccccc1)C(=O)C1(O)CCN(c2ccccc2)C1=O (stereo not shown) [A89, 3-(2-benzylacryloyl)-3-hydroxy-1-phenylpyrrolidin-2-one]
10 to 1000 | O=C(NCc1cc(F)cc(Cl)c1)[C@@]1(O)CCN(CCc2ccccc2)C1=O [A90, N-(3-Chloro-5-fluorobenzyl)-(S)-3-hydroxy-2-oxo-1-phenethyl-pyrrolidine-3-carboxamide]

IC50 [nM] | Compound
> 10000 | O=C(NCCO)c1cccc(N2CC[C@@](O)(C(=O)NCc3cc(F)cc(Cl)c3)C2=O)c1 [A91, N-(3-Chloro-5-fluorobenzyl)-(R)-3-hydroxy-1-[3-(2-hydroxy-ethylcarbamoyl)phenyl]-2-oxo-pyrrolidine-3-carboxamide]
1000 to 10000 | O=C(NCc1cc(F)cc(Cl)c1)[C@]1(O)CCN(CCc2ccccc2)C1=O [A92, N-(3-Chloro-5-fluorobenzyl)-(R)-3-hydroxy-2-oxo-1-phenethyl-pyrrolidine-3-carboxamide]
1000 to 10000 | CN(CCO)C(=O)c1cccc(N2CC[C@](O)(C(=O)NCc3cc(F)cc(Cl)c3)C2=O)c1 [A93, N-(3-Chloro-5-fluorobenzyl)-(S)-3-hydroxy-1-{3-[(2-hydroxy-ethyl)methylcarbamoyl]phenyl}-2-oxopyrrolidine-3-carboxamide]
10 to 1000 | O=C(NCCCO)c1cccc(N2CC[C@](O)(C(=O)NCc3cc(F)cc(Cl)c3)C2=O)c1 [A94, N-(3-Chloro-5-fluorobenzyl)-(S)-3-hydroxy-1-[3-(3-hydroxy-propylcarbamoyl)phenyl]-2-oxo-pyrrolidine-3-carboxamide]
10 to 1000 | O=C(c1cccc(N2CC[C@](O)(C(=O)NCc3cc(F)cc(Cl)c3)C2=O)c1)N1CCCCC1 [A95, N-(3-Chloro-5-fluorobenzyl)-(S)-3-hydroxy-2-oxo-1-[3-(piperidin-1-carbonyl)phenyl]pyrrolidine-3-carboxamide]
10 to 1000 | O=C1NCCc2cc(N3CC[C@](O)(C(=O)NCc4cc(F)cc(Cl)c4)C3=O)ccc21 [A96, N-(3-Chloro-5-fluorobenzyl)-(S)-3-hydroxy-2-oxo-1-(1-oxo-1,2,3,4-tetrahydroisoquinolin-6-yl)pyrrolidine-3-carboxamide]
10 to 1000 | N#Cc1ccc(N2CC[C@](O)(C(=O)NCc3cc(F)cc(Cl)c3)C2=O)cn1 [A97, N-(3-Chloro-5-fluorobenzyl)-(S)-1-(6-cyanopyridin-3-yl)-3-hydroxy-2-oxopyrrolidine-3-carboxamide]
> 10000 | N#Cc1cncc(N2CC[C@@](O)(C(=O)NCc3cc(F)cc(Cl)c3)C2=O)c1 [A98, N-(3-Chloro-5-fluorobenzyl)-(R)-1-(5-cyanopyridin-3-yl)-3-hydroxy-2-oxopyrrolidine-3-carboxamide]
10 to 1000 | O=C(NCc1cc(F)cc(Cl)c1)[C@@]1(O)CCN(c2ccc(C(F)(F)F)nc2)C1=O [A99, N-(3-Chloro-5-fluorobenzyl)-(S)-3-hydroxy-2-oxo-1-(6-trifluoromethylpyridin-3-yl)-pyrrolidine-3-carboxamide]
10 to 1000 | COC(=O)c1cc(N2CCC(O)(C(=O)NCc3cc(F)cc(Cl)c3)C2=O)cnc1C (stereo not shown) [A100, Methyl 5-[3-(3-chloro-5-fluorobenzylcarbamoyl)-3-hydroxy-2-oxopyrrolidin-1-yl]-2-methylnicotinate]
> 10000 | CC1(C)CN(c2ccccc2)C(=O)[C@@]1(O)C(=O)NCc1cc(F)cc(Cl)c1 [A101, N-(3-Chloro-5-fluorobenzyl)-(S)-3-hydroxy-4,4-dimethyl-2-oxo-1-phenylpyrrolidine-3-carboxamide]
1000 to 10000 | CN(CCO)C(=O)c1cccc(N2CC[C@@](O)(C(=O)NCc3cc(F)cc(Cl)c3)C2=O)c1 [A102, N-(3-Chloro-5-fluorobenzyl)-(R)-3-hydroxy-1-{3-[(2-hydroxy-ethyl)methylcarbamoyl]phenyl}-2-oxopyrrolidine-3-carboxamide]
1000 to 10000 | O=C(NCCCO)c1cccc(N2CC[C@@](O)(C(=O)NCc3cc(F)cc(Cl)c3)C2=O)c1 [A103, N-(3-Chloro-5-fluorobenzyl)-(R)-3-hydroxy-1-[3-(3-hydroxy-propylcarbamoyl)phenyl]-2-oxo-pyrrolidine-3-carboxamide]
> 10000 | O=C(c1cccc(N2CC[C@@](O)(C(=O)NCc3cc(F)cc(Cl)c3)C2=O)c1)N1CCCCC1 [A104, N-(3-Chloro-5-fluorobenzyl)-(R)-3-hydroxy-2-oxo-1-[3-(piperidin-1-carbonyl)phenyl]pyrrolidine-3-carboxamide]
> 10000 | O=C1NCCc2cc(N3CC[C@@](O)(C(=O)NCc4cc(F)cc(Cl)c4)C3=O)ccc21 [A105, N-(3-Chloro-5-fluorobenzyl)-(R)-3-hydroxy-2-oxo-1-(1-oxo-1,2,3,4-tetrahydroisoquinolin-6-yl)pyrrolidine-3-carboxamide]
> 10000 | N#Cc1ccc(N2CC[C@@](O)(C(=O)NCc3cc(F)cc(Cl)c3)C2=O)cn1 [A106, N-(3-Chloro-5-fluorobenzyl)-(R)-1-(6-cyanopyridin-3-yl)-3-hydroxy-2-oxopyrrolidine-3-carboxamide]
1000 to 10000 | N#Cc1cncc(N2CC[C@](O)(C(=O)NCc3cc(F)cc(Cl)c3)C2=O)c1 [A107, N-(3-Chloro-5-fluorobenzyl)-(S)-1-(5-cyanopyridin-3-yl)-3-hydroxy-2-oxopyrrolidine-3-carboxamide]

Reference: patent US10093623B2, “Cyclic amides as MetAP-2 inhibitors” (MERCK PATENT GmbH, priority 2012, dated 2018)
